Laboratory results reported in ChEMBL document CHEMBL1275587, “Emergence of ciprofloxacin-nonsusceptible Streptococcus pyogenes isolates from healthy children and pediatric patients in Portugal” (2010).
Converted amounts (≈) assume the structure as drawn.

How the values were obtained:
Format in all cases: functional
Streptococcus pyogenes [1] = experiment: Antimicrobial activity against ciprofloxacin-nonsusceptible Streptococcus pyogenes isolates by agar dilution method
Streptococcus pyogenes [2] = experiment: Antimicrobial activity against ciprofloxacin-nonsusceptible Streptococcus pyogenes isolates assessed as susceptible isolates by agar dilution method
Streptococcus pyogenes [3] = experiment: Antimicrobial activity against ciprofloxacin-nonsusceptible Streptococcus pyogenes isolates assessed as intermediate resistant isolates by agar dilution method
Streptococcus pyogenes [4] = experiment: Antimicrobial activity against ciprofloxacin-nonsusceptible Streptococcus pyogenes isolates assessed as resistant isolates by agar dilution method
Streptococcus pyogenes [5] = experiment: Antimicrobial activity against ciprofloxacin-nonsusceptible, AD PFGE pattern, emm6 type Streptococcus pyogenes with ST382 sequence type, ParC S79A mutant isolated from oropharyngeal colonization, tonsillitis/pharyngitis and skin/soft tissue infection
Streptococcus pyogenes [6] = experiment: Antimicrobial activity against ciprofloxacin-nonsusceptible, AD PFGE pattern, […] sequence type, ParC S79A mutant isolated from oropharyngeal colonization and onsillitis/pharyngitis
Streptococcus pyogenes [7] = experiment: Antimicrobial activity against ciprofloxacin-nonsusceptible, AD PFGE pattern, […] sequence type, ParC S79A mutant isolated from oropharyngeal colonization
Streptococcus pyogenes [8] = experiment: Antimicrobial activity against ciprofloxacin-nonsusceptible, DX PFGE pattern, emm6 type Streptococcus pyogenes with ST382 sequence type, ParC S79A mutant isolated from oropharyngeal colonization
Streptococcus pyogenes [9] = experiment: Antimicrobial activity against ciprofloxacin-nonsusceptible, DY PFGE pattern, emm6 type Streptococcus pyogenes with ST382 sequence type, ParC S79A mutant isolated from oropharyngeal colonization
Streptococcus pyogenes [10] = experiment: Antimicrobial activity against ciprofloxacin-nonsusceptible, AM PFGE pattern, emm6 type Streptococcus pyogenes with ST382 sequence type, ParC S79A mutant isolated from oropharyngeal colonization
Streptococcus pyogenes [11] = experiment: Antimicrobial activity against ciprofloxacin-nonsusceptible, BT PFGE pattern, emm28 type Streptococcus pyogenes with ST52 sequence type, ParC D83G mutant isolated from skin/soft tissue infection
Streptococcus pyogenes [12] = experiment: Antimicrobial activity against ciprofloxacin-nonsusceptible, CJ PFGE pattern, emm89 type Streptococcus pyogenes with ST101 sequence type isolated from tonsillitis/pharyngitis
Streptococcus pyogenes [13] = experiment: Antimicrobial activity against ciprofloxacin-nonsusceptible, K PFGE pattern, emm5 type Streptococcus pyogenes with ST99 sequence type, ParC D83G isolated from oropharyngeal colonization

SMILES | MIC (Streptococcus pyogenes [1]) [µg/mL] | MIC50 (Streptococcus pyogenes [1]) [µg/mL] | MIC90 (Streptococcus pyogenes [1]) [µg/mL] | Activity (Streptococcus pyogenes [2]) [%] | Activity (Streptococcus pyogenes [3]) [%] | Activity (Streptococcus pyogenes [4]) [%] | MIC (Streptococcus pyogenes [5]) [µg/mL] | MIC (Streptococcus pyogenes [6]) [µg/mL] | MIC (Streptococcus pyogenes [7]) [µg/mL] | MIC (Streptococcus pyogenes [8]) [µg/mL] | MIC (Streptococcus pyogenes [9]) [µg/mL] | MIC (Streptococcus pyogenes [10]) [µg/mL] | MIC (Streptococcus pyogenes [11]) [µg/mL] | MIC (Streptococcus pyogenes [12]) [µg/mL] | MIC (Streptococcus pyogenes [13]) [µg/mL]
CN(C)[C@@H]1C(O)=C(C(N)=O)C(=O)[C@@]2(O)C(O)=C3C(=O)c4c(O)cccc4[C@@](C)(O)[C@H]3C[C@@H]12 [TETRACYCLINE] | ≤ 2 | ≤ 2 | ≤ 2 | 98.5 | 0 | 1.5 |  |  |  |  |  |  |  |  | 
CC1(C)S[C@@H]2[C@H](NC(=O)Cc3ccccc3)C(=O)N2[C@H]1C(=O)O [PENICILLIN G] | ≤ 0.03 | ≤ 0.03 | ≤ 0.03 | 100 | 0 | 0 |  |  |  |  |  |  |  |  | 
C[C@H]1COc2c(N3CCN(C)CC3)c(F)cc3c(=O)c(C(=O)O)cn1c23.C[C@H]1COc2c(N3CCN(C)CC3)c(F)cc3c(=O)c(C(=O)O)cn1c23.O [LEVOFLOXACIN] | 2 | 2 | 2 | 92.4 | 7.6 | 0 | 2 | 2 | 4 | 2 | 2 | 2 | 2 | 2 | 2
O=C(O)c1cn(C2CC2)c2cc(N3CCNCC3)c(F)cc2c1=O [CIPROFLOXACIN] | 2 (≈ 6.04 µM) |  |  |  |  |  | 2 (≈ 6.04 µM) | 2 (≈ 6.04 µM) | 4 (≈ 12.1 µM) | 2 (≈ 6.04 µM) | 4 (≈ 12.1 µM) | 2 (≈ 6.04 µM) | 2 (≈ 6.04 µM) | 2 (≈ 6.04 µM) | 2 (≈ 6.04 µM)
COc1c(N2C[C@@H]3CCCN[C@@H]3C2)c(F)cc2c(=O)c(C(=O)O)cn(C3CC3)c12 [MOXIFLOXACIN] | ≤ 0.25 | 0.5 (≈ 1.25 µM) | 0.5 (≈ 1.25 µM) |  |  |  |  | 0.5 (≈ 1.25 µM) | 1 (≈ 2.49 µM) | 0.5 (≈ 1.25 µM) | 0.5 (≈ 1.25 µM) | 0.5 (≈ 1.25 µM) |  | 0.5 (≈ 1.25 µM) | 0.5 (≈ 1.25 µM)
CN[C@H](CC(C)C)C(=O)N[C@H]1C(=O)N[C@@H](CC(N)=O)C(=O)N[C@H]2C(=O)N[C@H]3C(=O)N[C@H](C(=O)N[C@H](C(=O)O)c4cc(O)cc(O)c4-c4cc3ccc4O)[C@H](O)c3ccc(c(Cl)c3)Oc3cc2cc(c3O[C@@H]2O[C@H](CO)[C@@H](O)[C@H](O)[C@H]2O[C@H]2C[C@](C)(N)[C@H](O)[C@H](C)O2)Oc2ccc(cc2Cl)[C@H]1O [VANCOMYCIN] | ≤ 0.25 | 0.5 (≈ 0.345 µM) | 0.5 (≈ 0.345 µM) | 100 | 0 | 0 |  |  |  |  |  |  |  |  | 
CN(C)c1cc(NC(=O)CNC(C)(C)C)c(O)c2c1C[C@H]1C[C@H]3[C@H](N(C)C)C(O)=C(C(N)=O)C(=O)[C@@]3(O)C(O)=C1C2=O [TIGECYCLINE] | 0.025 (≈ 0.0427 µM) |  |  |  |  |  |  |  |  |  |  |  |  |  | 
CO/N=C(\C(=O)N[C@@H]1C(=O)N2C(C(=O)O)=C(COC(C)=O)CS[C@H]12)c1csc(N)n1 [CEFOTAXIME] | ≤ 0.06 | ≤ 0.06 | ≤ 0.06 | 100 | 0 | 0 |  |  |  |  |  |  |  |  | 
CC[C@H]1OC(=O)[C@H](C)[C@@H](O[C@H]2C[C@@](C)(OC)[C@@H](O)[C@H](C)O2)[C@H](C)[C@@H](O[C@@H]2O[C@H](C)C[C@H](N(C)C)[C@H]2O)[C@](C)(O)C[C@@H](C)C(=O)[C@H](C)[C@@H](O)[C@]1(C)O [ERYTHROMYCIN] | ≤ 0.25 | ≤ 0.25 | ≤ 0.25 | 98.5 | 0 | 1.5 |  |  |  |  |  |  |  |  | 
CCC[C@@H]1C[C@@H](C(=O)N[C@@H]([C@H]2O[C@H](SC)[C@H](O)[C@@H](O)[C@H]2O)[C@H](C)Cl)N(C)C1 [CLINDAMYCIN] | ≤ 0.25 | ≤ 0.25 | ≤ 0.25 | 98.5 | 0 | 1.5 |  |  |  |  |  |  |  |  | 
CC1(C)S[C@@H]2[C@H](NC(=O)[C@H](N)c3ccccc3)C(=O)N2[C@H]1C(=O)O [AMPICILLIN] | ≤ 0.25 | ≤ 0.25 | ≤ 0.25 | 100 | 0 | 0 |  |  |  |  |  |  |  |  | 
